Measured values reported in patent US20110077294A1, “R-(-) / S-(+)-7-[3-N SUBSTITUTED AMINO-2 HYDROXYPROPOXY] FLAVONES” (priority 2006, published 2011).
Marks after values point to notes of the source that are not given here.

How the values were obtained:
C57BL/KsBom-db/db mice [1] = test: Serum lipid profile of treated db/db mice (antidyslipidemic activity); format: in vivo; conditions: db/db mice
C57BL/KsBom-db/db mice [2] = test: Blood glucose profile of db/db mice during daily treatment (antihyperglycemic activity); format: in vivo; conditions: for Blood glucose % change compared to control, day 1: day 1, vs sham; for Blood glucose % change compared to control, day 2: day 2, vs sham; for Blood glucose % change compared to control, day 3: day 3, vs sham; for Blood glucose % change compared to control, day 4: day 4, vs sham; for Blood glucose % change compared to control, day 5: day 5, vs sham; for Blood glucose % change compared to control, day 6: day 6, vs sham; for Blood glucose % change compared to control, day 7: day 7, vs sham; for Blood glucose % change compared to control, day 8: day 8, vs sham; for Blood glucose % change compared to control, day 9: day 9, vs sham; for Comparative antihyperglycemic activity: Average Fall: day given in brackets, in %
Description: C57BL/KsBom-db/db mice (12-18 weeks old), weighing around 35+g bred in the animal house of CDRI, Lucknow, were used in the present experiments. The mice were housed in groups of 3 to 5 (same sex) in a room controlled for temperature (23±2.0 ° C.) and 12/12 hours light/dark cycle (lights on at 6.00 am). Body weight of each animal was measured daily from day 1 to day 10 of the experiment. All animals had free access to fresh water and normal pellet diet except on the day of the postprandial protocol (day 6) and during the overnight fast before the OGTT on day 10. The animals always had access to water during experimental periods. Blood glucose was checked every morning up till day 10. On day 10 an oral glucose tolerance test (OGTT) was performed after an overnight fasting. Blood glucose was measured at −30.0 min and test compounds were administered. The blood glucose was again measured at 0 min just post treatment and at this juncture glucose solution was given at a dose of 3 gm/kg to all the groups including the vehicle treated group. The blood glucose levels were checked at 30 min, 60 min, 90 min and 120 min post glucose administration. The data was analyzed for its significance on Prism software.

## CC(C)(C)NC[C@H](O)COc1ccc2c(=O)cc(-c3cc(OCc4ccccc4)cc(OCc4ccccc4)c3)oc2c1 [S-002-853 (S), (S)-(+)-7-(3-tert-Butylamino-2-hydroxypropoxy)-3′,5′-dibenzyloxyflavone]
C57BL/KsBom-db/db mice [1]; test dose 10 mg/kg
  Comparative antihyperlipidemic activity: HDL-C: +17.4^ns
C57BL/KsBom-db/db mice [1]; test dose 10 mg/kg, in %
  Comparative antihyperlipidemic activity: T-Chol: 16.3*
  Comparative antihyperlipidemic activity: TG: 17.9*
C57BL/KsBom-db/db mice [1]; test dose 25 mg/kg, in %
  Comparative antihyperlipidemic activity: HDL-C: +33.2*
  Comparative antihyperlipidemic activity: T-Chol: 27.8*
  Comparative antihyperlipidemic activity: TG: 14.5**
C57BL/KsBom-db/db mice [2]; 10 mg/kg
  fall in blood glucose profile (in words): not statistically significant on any day post treatment
  Blood glucose, day 1 post treatment: 19.8 ± 2.47 mM
  Blood glucose % change compared to control, day 1: −0.9%
  Blood glucose, day 2 post treatment: 18.5 ± 2.34 mM
  Blood glucose % change compared to control, day 2: −9.60%
  Blood glucose, day 3 post treatment: 17.9 ± 2.14 mM
  Blood glucose % change compared to control, day 3: −18.6%
  Blood glucose, day 4 post treatment: 15.3 ± 2.96 mM
  Blood glucose % change compared to control, day 4: −26.8%
  Blood glucose, day 5 post treatment: 13.8 ± 2.98 mM
  Blood glucose % change compared to control, day 5: −35.0%
  Blood glucose, day 6 post treatment: 13.1 ± 3.41 mM
  Blood glucose % change compared to control, day 6: −40.7%
  Blood glucose, day 7 post treatment: 11.8 ± 3.55 mM
  Blood glucose % change compared to control, day 7: −42.0%
  Blood glucose, day 8 post treatment: 12.1 ± 3.39 mM
  Blood glucose % change compared to control, day 8: −42.2%
  Blood glucose, day 9 post treatment: 14.2 ± 2.98 mM
  Blood glucose % change compared to control, day 9: −39.4%
C57BL/KsBom-db/db mice [2]; 25 mg/kg
  antihyperglycemic and antidyslipidemic/antihyperlipidemic activity (in words): significant antihyperglycemic and antidyslipidemic activity
  Blood glucose, day 1 post treatment: 22.4 ± 1.24 mM
  Blood glucose % change compared to control, day 1: +0.20%
  Blood glucose, day 2 post treatment: 16.6 ± 3.85 mM
  Blood glucose % change compared to control, day 2: −33.6%
  Blood glucose, day 3 post treatment: 12.9 ± 3.00 mM
  Blood glucose % change compared to control, day 3: −39.5%
  Blood glucose, day 4 post treatment: 10.6 ± 2.89 mM
  Blood glucose % change compared to control, day 4: −54.9%
  Blood glucose, day 5 post treatment: 8.80 ± 3.84 mM
  Blood glucose % change compared to control, day 5: −55.6%
  Blood glucose, day 6 post treatment: 7.60 ± 3.46 mM
  Blood glucose % change compared to control, day 6: −61.1%
  Blood glucose, day 7 post treatment: 10.6 ± 2.20 mM
  Blood glucose % change compared to control, day 7: −52.2%
  Blood glucose, day 8 post treatment: 8.30 ± 1.13 mM
  Blood glucose % change compared to control, day 8: −60.0%
  Blood glucose, day 9 post treatment: 7.90 ± 1.30 mM
  Blood glucose % change compared to control, day 9: −58.5%
C57BL/KsBom-db/db mice [2]; 25 mg/kg, day 6 of treatment
  maximum percentage fall in blood glucose: around 61.1%
C57BL/KsBom-db/db mice [2]; 25 mg/kg, listed as S-isomer
  antihyperglycemic and antidyslipidemic/antihyperlipidemic activity (in words): marked antihyperglycemic and antihyperlipidemic effect compared to racemic mixture
C57BL/KsBom-db/db mice [2]; test dose 10 mg/kg
  Comparative antihyperglycemic activity: Average Fall: 42.2*
C57BL/KsBom-db/db mice [2]; test dose 25 mg/kg
  Comparative antihyperglycemic activity: Average Fall: 61.1**
